Measurements: ChEMBL document CHEMBL1201862, “PubChem BioAssay data set” (2004)
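These data come from cells grown in 96-well plates and exposed to compound for 48 hours at five concentrations. Abbreviation: GI50, concentration required for 50% inhibition of growth.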 Activity calls are given as the source filed them. Cut-off read from the data, not from the text of the source: active = GI50 up to about 1.1 µM and inactive = higher.

Columns and labels:
Test in all cases: inhibition of tumour cell growth, NCI panel, 48 h
SK-MEL-28 = tested on: SK-MEL-28
U-251 = tested on: U-251
OVCAR-8 = tested on: OVCAR-8
NCI-H23 = tested on: NCI-H23
EKVX = tested on: EKVX
SK-MEL-2 = tested on: SK-MEL-2
CCRF-CEM = tested on: CCRF-CEM
NCI-H460 = tested on: NCI-H460
M14 = tested on: M14
MOLT-4 = tested on: MOLT-4
UACC-257 = tested on: UACC-257
NCI/ADR-RES = tested on: NCI/ADR-RES
OVCAR-5 = tested on: OVCAR-5
SF-295 = tested on: SF-295
K562 = tested on: K562
HCT-116 = tested on: HCT-116
SNB-19 = tested on: SNB-19
LOX IMVI = tested on: LOX IMVI
SW-620 = tested on: SW-620
NCI-H522 = tested on: NCI-H522

Compound	GI50 (SK-MEL-28)	GI50 (U-251)	GI50 (OVCAR-8)	GI50 (NCI-H23)	GI50 (EKVX)	GI50 (SK-MEL-2)	GI50 (CCRF-CEM)	GI50 (NCI-H460)	GI50 (M14)	GI50 (MOLT-4)	GI50 (UACC-257)	GI50 (NCI/ADR-RES)	GI50 (OVCAR-5)	GI50 (SF-295)	GI50 (K562)	GI50 (HCT-116)	GI50 (SNB-19)	GI50 (LOX IMVI)	GI50 (SW-620)	GI50 (NCI-H522)
O=c1[nH]nc(NCCc2ccccc2)c2nnn(Cc3ccccc3)c12	> 100 µM (inactive)	> 100 µM (inactive)	> 100 µM (inactive)	> 100 µM (inactive)	> 100 µM (inactive)	> 100 µM (inactive)	> 100 µM (inactive)	> 100 µM (inactive)	> 100 µM (inactive)	> 100 µM (inactive)	> 100 µM (inactive)	> 100 µM (inactive)	> 100 µM (inactive)	> 100 µM (inactive)	> 100 µM (inactive)	> 100 µM (inactive)	> 100 µM (inactive)	> 100 µM (inactive)		
OCC(O)C(O)C(O)c1nn(-c2ccc(F)cc2)c2nc3cc(Cl)c(Cl)cc3nc12 (configuration not stated)	16.8 µM (inactive)	29.8 µM (inactive)	11 µM (inactive)	18.5 µM (inactive)	18.9 µM (inactive)	17.3 µM (inactive)	14.9 µM (inactive)	25.5 µM (inactive)	18.2 µM (inactive)	18.8 µM (inactive)	21.4 µM (inactive)		> 100 µM (inactive)	29.1 µM (inactive)	17.6 µM (inactive)	24.5 µM (inactive)	18.3 µM (inactive)	18.3 µM (inactive)	26.4 µM (inactive)	14.9 µM (inactive)
CC1(C)OC(=S)N(c2ccccc2)C12C=Cc1cc3ccccc3cc1O2 (configuration not stated)	> 100 µM (inactive)	> 100 µM (inactive)	> 100 µM (inactive)	> 100 µM (inactive)	> 100 µM (inactive)	> 100 µM (inactive)	> 100 µM (inactive)	> 100 µM (inactive)	> 100 µM (inactive)	> 100 µM (inactive)	> 100 µM (inactive)	> 100 µM (inactive)	> 100 µM (inactive)	> 100 µM (inactive)	41.3 µM (inactive)	> 100 µM (inactive)	> 100 µM (inactive)	> 100 µM (inactive)	> 100 µM (inactive)	
COC(=O)c1c(C)cccc1/C=C1\Cc2cc(C)cc(C)c2C1=O	> 100 µM (inactive)	15.3 µM (inactive)	63.8 µM (inactive)	51.1 µM (inactive)	37.6 µM (inactive)	13.2 µM (inactive)	> 100 µM (inactive)	98.4 µM (inactive)	55 µM (inactive)	> 100 µM (inactive)	> 100 µM (inactive)		> 100 µM (inactive)	21.7 µM (inactive)	> 100 µM (inactive)	36.8 µM (inactive)	18.5 µM (inactive)	> 100 µM (inactive)	> 100 µM (inactive)	11.2 µM (inactive)
Brc1ccc(C2C3CSc4ccccc4C3=NN2c2ccccc2)cc1 (configuration not stated)	67.5 µM (inactive)	54.2 µM (inactive)	62.1 µM (inactive)	> 100 µM (inactive)		> 100 µM (inactive)	34.8 µM (inactive)	32.8 µM (inactive)	> 100 µM (inactive)	43 µM (inactive)	4.07 µM (inactive)	77.6 µM (inactive)			77.4 µM (inactive)	> 100 µM (inactive)	> 100 µM (inactive)	77.8 µM (inactive)	34.7 µM (inactive)	
COC(=O)/C=C(\S/C(=C(/c1ccc(OC)cc1)n1cc(C(=O)OC)c(C(=O)OC)n1)c1ccc(OC)cc1)C(=O)OC	3.08 µM (inactive)	33.6 µM (inactive)	2.11 µM (inactive)	37.2 µM (inactive)	21.6 µM (inactive)	32.6 µM (inactive)	0.399 µM (active)	35.9 µM (inactive)	21.6 µM (inactive)	2.78 µM (inactive)	8.49 µM (inactive)	28.7 µM (inactive)	27.1 µM (inactive)	> 100 µM (inactive)	6.5 µM (inactive)	9.98 µM (inactive)	51.8 µM (inactive)	9.35 µM (inactive)	7.06 µM (inactive)	
COC(=O)/C(=N\NC(N)=S)C(C#N)c1ccccc1 (configuration not stated)	> 100 µM (inactive)	> 100 µM (inactive)	> 100 µM (inactive)	> 100 µM (inactive)	> 100 µM (inactive)	> 100 µM (inactive)	> 100 µM (inactive)	> 100 µM (inactive)	> 100 µM (inactive)	> 100 µM (inactive)	> 100 µM (inactive)		> 100 µM (inactive)	> 100 µM (inactive)	> 100 µM (inactive)	> 100 µM (inactive)	> 100 µM (inactive)	> 100 µM (inactive)	> 100 µM (inactive)	> 100 µM (inactive)
COC(=O)C1(Cc2ccccc2)Cc2ccccc2C1	26.9 µM (inactive)	25.8 µM (inactive)	22.8 µM (inactive)	23.2 µM (inactive)	9.84 µM (inactive)	11.5 µM (inactive)	15.5 µM (inactive)	25.5 µM (inactive)	17.1 µM (inactive)	14.8 µM (inactive)	24.4 µM (inactive)	21.9 µM (inactive)	31.8 µM (inactive)	36.5 µM (inactive)	15.8 µM (inactive)	17.3 µM (inactive)		20.5 µM (inactive)	35 µM (inactive)	
